In EP4806910A1, “TRI-AGONIST COMPOUND” (priority 2023, dated 2025) one finds EC50 data, which are given here for five compounds.

pEC50: −log10 of the molar value.

Format in all cases: cell-based
The target in one assay is T1, GCG-R (Homo sapiens, UniProt P47871).
T1 construct: expressed in transfected cells; host or cells: CHO-K1
The experiment in a line: GCG activity test (cAMP, chemiluminescence). The method, then:
(§1) Upon stimulation by a specific agonist, GCG-R activates the intracellular adenylate cyclase signaling pathway, resulting in an increase in cAMP levels and ultimately leading to insulin production and secretion. A cell line stably transfected with GCG-R was stimulated with test compounds, thereby rapidly increasing intracellular cAMP levels. The relative luminescence units (RLU) of cells stimulated at various concentrations were measured by a chemiluminescence method, and the EC50 value of the agonist was calculated accordingly. This activity assay method is currently a commonly used method for evaluating GCG receptor agonist activity both domestically and internationally.
A CHO-K1 cell line stably expressing GCG-R was used. The stable cells were stimulated with agonists at different concentrations, and the relative luminescence units after stimulation at each concentration were measured to calculate the EC50 value of the agonist.

For a further assay, the target named is T2, GIPR (Homo sapiens, UniProt P48546).
T2 construct: expressed in transfected cells; host or cells: CHO-K1
T2 sequence (P48546 22-466): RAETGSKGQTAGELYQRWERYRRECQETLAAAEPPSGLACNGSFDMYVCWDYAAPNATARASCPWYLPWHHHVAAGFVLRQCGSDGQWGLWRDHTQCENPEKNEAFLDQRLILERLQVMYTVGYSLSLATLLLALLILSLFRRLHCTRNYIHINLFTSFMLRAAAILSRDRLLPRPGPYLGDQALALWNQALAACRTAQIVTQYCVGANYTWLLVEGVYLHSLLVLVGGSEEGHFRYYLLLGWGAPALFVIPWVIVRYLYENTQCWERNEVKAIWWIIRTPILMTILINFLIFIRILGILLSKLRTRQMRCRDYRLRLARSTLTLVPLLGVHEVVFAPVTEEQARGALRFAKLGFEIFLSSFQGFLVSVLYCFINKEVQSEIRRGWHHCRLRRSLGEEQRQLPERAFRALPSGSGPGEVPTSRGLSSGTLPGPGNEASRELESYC
The experiment in a line: GIP activity test (cAMP, chemiluminescence). As to the method: as §1, with “GIPR” for “GCG-R”, “GIP” for “GCG”, “internationally. A CHO-K1 cell line stably expressing GIPR was used. The stable cells were stimulated with agonists at different concentrations, and the relative luminescence units after stimulation at each concentration were measured to calculate the EC50 value of the agonist.” for “internationally.”

A further assay has as its target T3, GLP-1R (Homo sapiens, UniProt P43220).
T3 construct: expressed in transfected cells; host or cells: CHO-K1
Nature of the assay: GLP-1 activity test (cAMP, chemiluminescence). The method, then: as §1, with “GLP-1R” for “GCG-R”, “test” for “assay”, “GLP-1” for “GCG”, “internationally. A CHO-K1 cell line stably expressing GLP-1R was used. The stable cells were stimulated with agonists at different concentrations, and the relative luminescence units after stimulation at each concentration were measured to calculate the EC50 value of the agonist.” for “internationally.”

T1 sequence (P47871 26-477, species assumed): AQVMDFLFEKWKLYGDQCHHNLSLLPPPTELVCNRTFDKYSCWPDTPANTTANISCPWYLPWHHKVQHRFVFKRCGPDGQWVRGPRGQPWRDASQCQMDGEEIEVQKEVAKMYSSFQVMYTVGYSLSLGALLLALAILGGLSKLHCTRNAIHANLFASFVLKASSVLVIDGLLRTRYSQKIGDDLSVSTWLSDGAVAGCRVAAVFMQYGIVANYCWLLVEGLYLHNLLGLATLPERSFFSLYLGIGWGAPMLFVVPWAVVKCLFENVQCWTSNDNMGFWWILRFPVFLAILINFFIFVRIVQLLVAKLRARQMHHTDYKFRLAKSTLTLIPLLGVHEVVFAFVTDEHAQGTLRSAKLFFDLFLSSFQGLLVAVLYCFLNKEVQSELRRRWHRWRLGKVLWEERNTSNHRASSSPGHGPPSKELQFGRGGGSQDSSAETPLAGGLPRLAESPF
T3 sequence (P43220 24-463, species assumed): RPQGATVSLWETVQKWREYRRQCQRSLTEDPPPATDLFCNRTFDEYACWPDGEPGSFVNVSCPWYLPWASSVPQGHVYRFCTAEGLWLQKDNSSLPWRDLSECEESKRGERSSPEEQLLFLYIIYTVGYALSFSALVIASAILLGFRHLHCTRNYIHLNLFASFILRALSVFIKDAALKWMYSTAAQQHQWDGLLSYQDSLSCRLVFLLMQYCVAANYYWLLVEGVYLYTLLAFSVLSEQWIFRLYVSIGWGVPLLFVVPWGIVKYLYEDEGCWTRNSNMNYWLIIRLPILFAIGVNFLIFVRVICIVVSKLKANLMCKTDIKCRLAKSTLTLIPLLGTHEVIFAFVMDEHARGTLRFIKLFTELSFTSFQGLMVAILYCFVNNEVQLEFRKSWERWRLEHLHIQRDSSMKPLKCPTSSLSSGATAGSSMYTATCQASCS

For `CC[C@H](C)[C@H](NC(=O)[C@H](Cc1ccccc1)NC(=O)[C@H](C)NC(=O)C(C)(C)NC(=O)[C@H](CCC(N)=O)NC(=O)[C@H](C)NC(=O)[C@H](CCCCNC(=O)COCCOCCNC(=O)CCCCC[C@H](NC(=O)CCCCCCCCCCCCCCCCCCC(=O)O)C(=O)O)NC(=O)[C@H](CCCCN)NC(=O)[C@H](CC(=O)O)NC(=O)[C@H](CC(C)C)NC(=O)C(C)(CC(C)C)NC(=O)[C@@H](NC(=O)[C@H](CO)NC(=O)[C@H](Cc1ccc(O)cc1)NC(=O)[C@H](CC(=O)O)NC(=O)[C@H](CO)NC(=O)[C@@H](NC(=O)C(C)(Cc1ccccc1F)NC(=O)[C@@H](NC(=O)CNC(=O)[C@H](CCC(N)=O)NC(=O)C(C)(C)NC(=O)[C@@H](N)Cc1ccc(O)cc1)[C@@H](C)O)[C@@H](C)O)[C@@H](C)CC)C(=O)N[C@@H](CCC(=O)O)C(=O)N[C@@H](Cc1ccc(O)cc1)C(=O)N[C@@H](CC(C)C)C(=O)N[C@@H](CC(C)C)C(=O)N[C@@H](CCC(=O)O)C(=O)NCCCCC(=O)N1CCC[C@H]1C(=O)N[C@@H](CO)C(=O)N[C@@H](CO)C(=O)NCC(=O)N[C@@H](C)C(=O)N1CCC[C@H]1C(=O)N1CCC[C@H]1C(=O)N1CCC[C@H]1C(=O)N[C@@H](CO)C(N)=O` (stereo partly drawn) [Compound 8], the negative logarithm of the EC50 (pEC50) is 9.75 at GCG-R, 10.48 at GIPR and 10.28 at GLP-1R.
For `CC[C@H](C)[C@H](NC(=O)[C@H](Cc1ccccc1)NC(=O)[C@H](C)NC(=O)C(C)(C)NC(=O)[C@H](CCC(N)=O)NC(=O)[C@H](C)NC(=O)[C@H](CCCCNC(=O)COCCOCCNC(=O)COCCOCCNC(=O)CC[C@H](NC(=O)CCCCCCCCCCCCCCCCCCC(=O)O)C(=O)O)NC(=O)[C@H](CCCCN)NC(=O)[C@H](CC(=O)O)NC(=O)[C@H](CC(C)C)NC(=O)C(C)(CC(C)C)NC(=O)[C@@H](NC(=O)[C@H](CO)NC(=O)[C@H](Cc1ccc(O)cc1)NC(=O)[C@H](CC(=O)O)NC(=O)[C@H](CO)NC(=O)[C@@H](NC(=O)C(C)(Cc1ccccc1)NC(=O)[C@@H](NC(=O)CNC(=O)[C@H](CCC(N)=O)NC(=O)C(C)(C)NC(=O)[C@@H](N)Cc1ccc(O)cc1)[C@@H](C)O)[C@@H](C)O)[C@@H](C)CC)C(=O)N[C@@H](CCC(=O)O)C(=O)N[C@@H](Cc1ccc(O)cc1)C(=O)N[C@@H](CC(C)C)C(=O)N[C@@H](CC(C)C)C(=O)N[C@@H](CCC(=O)O)C(=O)NCCCCC(=O)N1CCC[C@H]1C(=O)N[C@@H](CO)C(=O)N[C@@H](CO)C(=O)NCC(=O)N[C@@H](C)C(=O)N1CCC[C@H]1C(=O)N1CCC[C@H]1C(=O)N1CCC[C@H]1C(=O)N[C@@H](CO)C(N)=O` (stereo partly drawn) [Compound 9], in that order: 9.51, 10.57 and 10.28.
Regarding `CC[C@H](C)[C@H](NC(=O)[C@H](Cc1ccccc1)NC(=O)[C@H](C)NC(=O)C(C)(C)NC(=O)[C@H](CCC(N)=O)NC(=O)[C@H](C)NC(=O)[C@H](CCCCNC(=O)COCCOCCOCCOCCOCCNC(=O)CC[C@H](NC(=O)CCCCCCCCCCCCCCCCCCC(=O)O)C(=O)O)NC(=O)[C@H](CCCCN)NC(=O)[C@H](CC(=O)O)NC(=O)[C@H](CC(C)C)NC(=O)C(C)(CC(C)C)NC(=O)[C@@H](NC(=O)[C@H](CO)NC(=O)[C@H](Cc1ccc(O)cc1)NC(=O)[C@H](CC(=O)O)NC(=O)[C@H](CO)NC(=O)[C@@H](NC(=O)C(C)(Cc1ccccc1)NC(=O)[C@@H](NC(=O)CNC(=O)[C@H](CCC(N)=O)NC(=O)C(C)(C)NC(=O)[C@@H](N)Cc1ccc(O)cc1)[C@@H](C)O)[C@@H](C)O)[C@@H](C)CC)C(=O)N[C@@H](CCC(=O)O)C(=O)N[C@@H](Cc1ccc(O)cc1)C(=O)N[C@@H](CC(C)C)C(=O)N[C@@H](CC(C)C)C(=O)N[C@@H](CCC(=O)O)C(=O)NCCCCC(=O)N1CCC[C@H]1C(=O)N[C@@H](CO)C(=O)N[C@@H](CO)C(=O)NCC(=O)N[C@@H](C)C(=O)N1CCC[C@H]1C(=O)N1CCC[C@H]1C(=O)N1CCC[C@H]1C(=O)N[C@@H](CO)C(N)=O` (stereo partly drawn) [Compound 10], the negative-log EC50 (pEC50) at GCG-R was 9.52; at GIPR it was 10.59; on GLP-1R it was 10.31.
On to `CC[C@H](C)[C@H](NC(=O)[C@H](Cc1ccccc1)NC(=O)[C@H](C)NC(=O)C(C)(C)NC(=O)[C@H](CCC(N)=O)NC(=O)[C@H](C)NC(=O)[C@H](CCCCNC(=O)COCCOCCNC(=O)COCCOCCNC(=O)CC[C@H](NC(=O)CCCCCCCCCCCCCCCCCCC(=O)O)C(=O)O)NC(=O)[C@H](CCCCN)NC(=O)[C@H](CC(=O)O)NC(=O)[C@H](CC(C)C)NC(=O)C(C)(CC(C)C)NC(=O)[C@@H](NC(=O)[C@H](CO)NC(=O)[C@H](Cc1ccc(O)cc1)NC(=O)[C@H](CC(=O)O)NC(=O)[C@H](CO)NC(=O)[C@@H](NC(=O)C(C)(Cc1ccccc1F)NC(=O)[C@@H](NC(=O)CNC(=O)[C@H](CCC(N)=O)NC(=O)C(C)(C)NC(=O)[C@@H](N)Cc1ccc(O)cc1)[C@@H](C)O)[C@@H](C)O)[C@@H](C)CC)C(=O)N[C@@H](CCC(=O)O)C(=O)N[C@@H](Cc1ccc(O)cc1)C(=O)N[C@@H](CC(C)C)C(=O)N[C@@H](CC(C)C)C(=O)N[C@@H](CCC(=O)O)C(=O)NCCCCC(=O)N1CCC[C@H]1C(=O)N[C@@H](CO)C(=O)N[C@@H](CO)C(=O)NCC(=O)N[C@@H](C)C(=O)N1CCC[C@H]1C(=O)N1CCC[C@H]1C(=O)N1CCC[C@H]1C(=O)N[C@@H](CO)C(N)=O` (stereo partly drawn) [Compound 11], for which the pEC50 at GCG-R is 9.76; at GIPR, 10.60; at GLP-1R, 10.31.
As for `CC[C@H](C)[C@H](NC(=O)[C@H](Cc1ccccc1)NC(=O)[C@H](C)NC(=O)C(C)(C)NC(=O)[C@H](CCC(N)=O)NC(=O)[C@H](C)NC(=O)[C@H](CCCCNC(=O)COCCOCCOCCOCCOCCNC(=O)CC[C@H](NC(=O)CCCCCCCCCCCCCCCCCCC(=O)O)C(=O)O)NC(=O)[C@H](CCCCN)NC(=O)[C@H](CC(=O)O)NC(=O)[C@H](CC(C)C)NC(=O)C(C)(CC(C)C)NC(=O)[C@@H](NC(=O)[C@H](CO)NC(=O)[C@H](Cc1ccc(O)cc1)NC(=O)[C@H](CC(=O)O)NC(=O)[C@H](CO)NC(=O)[C@@H](NC(=O)C(C)(Cc1ccccc1F)NC(=O)[C@@H](NC(=O)CNC(=O)[C@H](CCC(N)=O)NC(=O)C(C)(C)NC(=O)[C@@H](N)Cc1ccc(O)cc1)[C@@H](C)O)[C@@H](C)O)[C@@H](C)CC)C(=O)N[C@@H](CCC(=O)O)C(=O)N[C@@H](Cc1ccc(O)cc1)C(=O)N[C@@H](CC(C)C)C(=O)N[C@@H](CC(C)C)C(=O)N[C@@H](CCC(=O)O)C(=O)NCCCCC(=O)N1CCC[C@H]1C(=O)N[C@@H](CO)C(=O)N[C@@H](CO)C(=O)NCC(=O)N[C@@H](C)C(=O)N1CCC[C@H]1C(=O)N1CCC[C@H]1C(=O)N1CCC[C@H]1C(=O)N[C@@H](CO)C(N)=O` (stereo partly drawn) [Compound 12], the figures for the negative-log EC50 (pEC50) at GCG-R, on GIPR and at GLP-1R were 9.78, 10.61 and 10.33, respectively.

The term pEC50 denotes the EC50 on a negative log10 scale, so that one unit is a factor of ten. Low values mean a high EC50, high ones a low EC50.
